Measurements published in US8592174B2, “Peptidase substrates” (bioMérieux, S.A., priority 2009, dated 2013).

Legend:
Assay in all cases: Peptidase detection on Columbia medium (Example 3)
Format in all cases: cell-based
Details in all cases: 75 mg/l, 48 h 37° C.
[1] = tested on: Pseudomonas aeruginosa 0001001; parameters: Coloration strength: key to the marks not given beside the values
Text: (§1) A medium serving as a growth control (Columbia) and denoted C was also poured.

[2] = tested on: Serratia marcescens 7303004; parameters: Coloration strength: key to the marks not given beside the values; also: key: +++: good growth/high coloration strength; ++: medium growth/medium coloration strength; +: weak growth/weak coloration strength; −: no growth/no coloration
Text: as §1

[3] = tested on: Acinetobacter baumannii 0604029; also: key: +++: good growth/high coloration strength; ++: medium growth/medium coloration strength; +: weak growth/weak coloration strength; −: no growth/no coloration
Text: as §1

[4] = tested on: Bacillus subtilis 0204038; also: key: +++: good growth/high coloration strength; ++: medium growth/medium coloration strength; +: weak growth/weak coloration strength; −: no growth/no coloration
Text: as §1

[5] = tested on: Burkholderia cepacia 7507032
Text: as §1

Candida albicans 0801025 = tested on: Candida albicans 0801025; also: key: +++: good growth/high coloration strength; ++: medium growth/medium coloration strength; +: weak growth/weak coloration strength; −: no growth/no coloration
Text: as §1

Candida glabrata 0408083 = tested on: Candida glabrata 0408083
Text: as §1

[6] = tested on: Citrobacter freundii 0006197
Text: as §1

[7] = tested on: Enterobacter cloacae 0604040
Text: as §1

[8] = tested on: Enterococcus faecalis 0008192
Text: as §1

[9] = tested on: Enterococcus faecium 0610021
Text: as §1

Escherichia coli 0002005 = tested on: Escherichia coli 0002005
Text: as §1

[10] = tested on: Klebsiella pneumoniae 0008009
Text: as §1

[11] = tested on: Listeria monocytogenes 8812049
Text: as §1

MRSA 0303033 = tested on: MRSA 0303033
Text: as §1

[12] = tested on: Morganella morganii 9207053
Text: as §1

[13] = tested on: Providencia rettgeri 0706064
Text: as §1

[14] = tested on: Salmonella ser. Typhimurium 0801029
Text: as §1

[15] = tested on: Staphylococcus aureus 7811049
Text: as §1

[16] = tested on: Staphylococcus epidermidis 0203050
Text: as §1

[17] = tested on: Streptococcus pyogenes 9806380
Text: as §1

[18] = tested on: Yersinia enterocolitica 7605019
Text: as §1

Cc1cc(C=Cc2ccc(NC(=O)[C@@H]3CCC(=O)N3)cc2)c2ccccc2[n+]1C.[I-] [pyroglutamyl-4-(4′-amidostyryl)-N-methylquinaldinium iodide]
++: Coloration strength [2] | Growth ([5]; control C: ++) | Growth ([8]; control C: ++) | Growth ([9]; control C: ++) | Growth ([11]; control C: ++) | Growth (MRSA 0303033; control C: +++) | Growth ([15]; control C: ++)
+: Growth (Candida albicans 0801025; control C: ++) | Growth ([18]; control C: ++)
−: Coloration strength [3] | Coloration strength [4] | Growth ([4]; control C: +++) | Coloration strength [5] | Coloration strength (Candida albicans 0801025) | Coloration strength (Candida glabrata 0408083) | Growth (Candida glabrata 0408083; control C: +) | Coloration strength [6] | Coloration strength [7] | Coloration strength [8] | Coloration strength [9] | Coloration strength (Escherichia coli 0002005) | Coloration strength [10] | Coloration strength [11] | Coloration strength (MRSA 0303033) | Coloration strength [12] | Coloration strength [13] | Coloration strength [14] | Coloration strength [15] | Coloration strength [16] | Growth ([16]; control C: ++) | Coloration strength [17] | Growth ([17]; control C: −) | Coloration strength [18]
+++: Coloration strength [1] | Growth ([1]; control C: +++) | Growth ([2]; control C: +++) | Growth ([3]; control C: +++) | Growth ([6]; control C: +++) | Growth ([7]; control C: +++) | Growth (Escherichia coli 0002005; control C: +++) | Growth ([10]; control C: +++) | Growth ([12]; control C: +++) | Growth ([13]; control C: +++) | Growth ([14]; control C: +++)
Orangey-red: Color [1]
